This note sets out measurements from ChEMBL document CHEMBL1136128, “3-(2-Benzyloxyphenyl)isoxazoles and isoxazolines: synthesis and evaluation as CFTR activators” (Bioorg Med Chem Lett, 2003).

Molecules are shown by their SMILES.

Sequence of Cystic fibrosis transmembrane conductance regulator (Rattus norvegicus) (P34158 whole entry): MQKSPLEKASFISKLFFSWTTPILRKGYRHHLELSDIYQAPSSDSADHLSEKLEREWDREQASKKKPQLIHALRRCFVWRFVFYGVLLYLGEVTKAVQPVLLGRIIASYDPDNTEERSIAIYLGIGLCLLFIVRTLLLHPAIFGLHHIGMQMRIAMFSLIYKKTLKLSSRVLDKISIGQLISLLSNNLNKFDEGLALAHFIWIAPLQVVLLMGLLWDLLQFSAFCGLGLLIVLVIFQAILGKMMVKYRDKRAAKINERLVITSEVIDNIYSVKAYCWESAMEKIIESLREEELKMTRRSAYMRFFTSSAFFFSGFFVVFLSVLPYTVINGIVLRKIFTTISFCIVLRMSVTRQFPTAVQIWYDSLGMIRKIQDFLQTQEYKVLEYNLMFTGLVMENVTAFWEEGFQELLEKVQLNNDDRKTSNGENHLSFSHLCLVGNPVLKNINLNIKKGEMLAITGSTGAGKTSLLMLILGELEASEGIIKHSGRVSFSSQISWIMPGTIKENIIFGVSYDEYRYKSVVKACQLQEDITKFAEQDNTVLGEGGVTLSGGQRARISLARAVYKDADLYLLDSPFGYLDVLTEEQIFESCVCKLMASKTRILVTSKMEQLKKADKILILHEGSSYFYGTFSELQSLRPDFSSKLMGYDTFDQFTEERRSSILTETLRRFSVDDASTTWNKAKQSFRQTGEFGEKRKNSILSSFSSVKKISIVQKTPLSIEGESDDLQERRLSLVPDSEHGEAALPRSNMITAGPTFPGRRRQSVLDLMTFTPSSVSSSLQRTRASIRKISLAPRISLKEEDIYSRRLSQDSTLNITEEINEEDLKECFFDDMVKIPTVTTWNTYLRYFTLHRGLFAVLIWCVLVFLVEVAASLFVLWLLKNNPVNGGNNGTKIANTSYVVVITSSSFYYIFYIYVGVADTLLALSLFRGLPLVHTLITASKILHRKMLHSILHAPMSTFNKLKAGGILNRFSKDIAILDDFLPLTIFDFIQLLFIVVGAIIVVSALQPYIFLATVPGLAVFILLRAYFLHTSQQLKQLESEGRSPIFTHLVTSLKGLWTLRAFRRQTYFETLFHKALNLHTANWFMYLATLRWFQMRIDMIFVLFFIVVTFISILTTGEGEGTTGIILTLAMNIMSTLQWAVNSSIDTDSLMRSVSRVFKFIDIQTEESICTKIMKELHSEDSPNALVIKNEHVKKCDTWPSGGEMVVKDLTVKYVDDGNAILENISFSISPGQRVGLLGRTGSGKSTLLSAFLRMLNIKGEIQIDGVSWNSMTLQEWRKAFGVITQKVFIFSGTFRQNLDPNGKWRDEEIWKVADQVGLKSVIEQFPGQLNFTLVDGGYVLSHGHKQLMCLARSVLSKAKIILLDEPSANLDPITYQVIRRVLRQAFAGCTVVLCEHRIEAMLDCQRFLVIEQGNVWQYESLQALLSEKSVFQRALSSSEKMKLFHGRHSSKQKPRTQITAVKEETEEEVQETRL

The first test concerns the target Cystic fibrosis transmembrane conductance regulator (Rattus norvegicus) (UniProt P34158). Kind of test: Percent activity against CFTR (cystic fibrosis transmembrane conductance regulator) in rat relative to UCCF-152(50 uM).
`COCc1cc(-c2ccccc2OCc2ccc(Br)cc2)no1`: the Activity was 10%. `COC(=O)C1CC(c2ccccc2OCc2cccc(OC)c2)=NO1` (configuration not stated) had an Activity of 29%. Turning to `COc1cccc(COc2ccccc2-c2cc(CO)on2)c1`, the Activity amounted to 45%. Regarding `COc1ccc(COc2ccccc2-c2cc(CCO)on2)cc1`, the Activity amounted to 46%.

The compound `OCCc1cc(-c2ccccc2OCc2ccc(Br)cc2)no1` gave an Activity of 106%. `COc1cccc(COc2ccccc2C2=NOC(CCl)C2)c1` (configuration not stated) yielded an Activity of 58%. As to `COc1ccccc1-c1cc(CCl)on1`, the Activity turned out to be 8%. The compound `COC(=O)C1CC(c2cc(Br)ccc2OCc2ccc(OC)cc2)=NO1` (configuration not stated) gave an Activity of 41%.

Consider `CCCCc1cc(-c2ccccc2OCc2ccc(OC)cc2)no1`, for which the Activity came out at 8%. Same read-out and setting: with `COc1ccc(COc2cccc(-c3cc(CCl)on3)c2)cc1` the figure was 2%; with `COC(=O)C1CC(c2ccccc2OCc2ccc(OC)cc2)=NO1` (configuration not stated), 64%. Same read-out and setting: under `COc1ccccc1-c1cc(CO)on1` stands 22%.

As to `ClCc1cc(-c2ccccc2OCc2ccc(Br)cc2)no1`, the Activity was found to be 25%. Compound `COc1ccc(COc2ccccc2C2=NOC(CO)C2)cc1` (configuration not stated) gave an Activity of 63%. `COc1ccc(COc2ccc(-c3cc(CCl)on3)cc2)cc1` yielded an Activity of 3%. As for `OCc1cc(-c2ccccc2OCc2ccc(Br)cc2)no1`, the Activity worked out at 39%. The same measure, in the same setting: with `COC(=O)c1onc(-c2ccccc2OCc2ccc(Br)cc2)c1C(=O)OC` the figure was 21%; with `COc1ccc(COc2ccc(Br)cc2-c2cc(CCl)on2)cc1`, 9%; with `COC(=O)C1CC(c2ccccc2OCc2ccc(Br)cc2)=NO1` (configuration not stated), 48%. With `COc1cccc(COc2ccccc2-c2cc(CCO)on2)c1`, the Activity came to 31%. `COc1ccc(COc2ccccc2C2=NOC(CCl)C2)cc1` (configuration not stated) showed an Activity of 61%.

Consider `COc1ccc(COc2ccc(Br)cc2-c2cc(CO)on2)cc1`, for which the Activity is 30%. In turn, `COC(=O)c1cc(-c2ccccc2OCc2ccc(Br)cc2)no1` gave an Activity of 32%. For the compound `COc1cccc(COc2ccccc2C2=NOC(CO)C2)c1` (configuration not stated), the Activity amounted to 29%.

Regarding `COc1ccc(COc2ccccc2-c2cc(CCl)on2)cc1`, the Activity is 72%. Compound `COc1ccc(COc2ccccc2-c2cc(CO)on2)cc1` displayed an Activity of 45%.

The next test has the same target. Put plainly: Percent activity against CFTR (cystic fibrosis transmembrane conductance regulator) in rat relative to genistein(50 uM).
On to `ClCc1cc(-c2ccccc2OCc2ccccc2)no1`, for which the Activity was found to be 55%.
